Laboratory results taken from paper PMC4925217 (FEBS letters, 2016).

Legend:
[1] = target: T1, ScRR (ScRR1 with ScRR2•ScRR4) (Saccharomyces cerevisiae, UniProt P21524); assay: [3H]CDP reduction assay, borate chromatography, isotope counting; format: biochemical; conditions: ATP effector, 0.05 to 1 mM CDP (hexamer); labelled compound; C-site
T1 sequence (P21524 1-888): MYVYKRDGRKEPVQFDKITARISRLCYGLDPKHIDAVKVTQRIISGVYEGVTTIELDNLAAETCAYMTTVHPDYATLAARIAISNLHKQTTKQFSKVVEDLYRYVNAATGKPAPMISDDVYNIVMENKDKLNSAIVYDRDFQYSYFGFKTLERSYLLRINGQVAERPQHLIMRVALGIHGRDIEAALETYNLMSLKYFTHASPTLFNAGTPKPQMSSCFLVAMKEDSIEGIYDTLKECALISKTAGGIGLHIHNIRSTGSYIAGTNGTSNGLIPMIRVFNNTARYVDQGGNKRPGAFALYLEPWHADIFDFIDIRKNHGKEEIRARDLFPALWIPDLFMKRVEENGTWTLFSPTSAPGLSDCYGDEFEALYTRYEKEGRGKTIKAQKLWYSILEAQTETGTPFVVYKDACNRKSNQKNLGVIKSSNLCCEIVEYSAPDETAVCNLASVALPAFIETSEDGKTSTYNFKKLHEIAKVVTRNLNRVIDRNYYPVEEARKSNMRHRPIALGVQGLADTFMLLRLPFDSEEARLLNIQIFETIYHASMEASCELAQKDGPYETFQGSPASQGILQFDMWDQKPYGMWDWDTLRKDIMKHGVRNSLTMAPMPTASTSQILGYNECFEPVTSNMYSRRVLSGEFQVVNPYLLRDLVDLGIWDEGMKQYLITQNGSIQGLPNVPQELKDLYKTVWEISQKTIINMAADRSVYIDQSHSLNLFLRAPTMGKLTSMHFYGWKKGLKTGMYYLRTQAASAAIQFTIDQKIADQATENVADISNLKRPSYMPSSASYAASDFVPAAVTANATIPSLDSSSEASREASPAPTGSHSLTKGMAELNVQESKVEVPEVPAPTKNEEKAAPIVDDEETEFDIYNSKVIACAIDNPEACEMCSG
T1 sequence (P09938 1-399 partner): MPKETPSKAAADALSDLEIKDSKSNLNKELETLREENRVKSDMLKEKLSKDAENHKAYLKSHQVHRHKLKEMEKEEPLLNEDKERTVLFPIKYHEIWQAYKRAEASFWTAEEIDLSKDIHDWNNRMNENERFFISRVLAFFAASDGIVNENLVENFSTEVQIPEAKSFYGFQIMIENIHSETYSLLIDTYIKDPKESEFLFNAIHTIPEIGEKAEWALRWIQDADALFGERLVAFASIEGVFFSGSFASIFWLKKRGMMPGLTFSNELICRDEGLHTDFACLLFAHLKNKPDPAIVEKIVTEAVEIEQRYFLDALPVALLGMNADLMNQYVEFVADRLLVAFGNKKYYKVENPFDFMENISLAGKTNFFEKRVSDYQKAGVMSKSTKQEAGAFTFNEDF
T1 sequence (P49723 1-345 partner): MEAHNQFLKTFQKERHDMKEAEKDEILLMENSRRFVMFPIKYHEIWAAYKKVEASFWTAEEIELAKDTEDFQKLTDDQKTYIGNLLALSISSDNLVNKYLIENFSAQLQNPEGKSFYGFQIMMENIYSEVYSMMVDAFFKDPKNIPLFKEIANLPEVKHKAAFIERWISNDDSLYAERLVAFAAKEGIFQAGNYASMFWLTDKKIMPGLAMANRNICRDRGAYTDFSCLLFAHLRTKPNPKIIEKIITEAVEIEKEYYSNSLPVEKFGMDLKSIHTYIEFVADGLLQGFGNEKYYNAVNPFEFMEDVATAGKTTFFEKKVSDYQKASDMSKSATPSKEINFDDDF

[2] = target: T1, ScRR (ScRR1 with ScRR2•ScRR4); assay: NDP reduction assay; format: biochemical; conditions: read-out: % inhibition at 20 μM

| Compound | [3H]CDP reduction assay, borate chromatography, isotope counting [1] | inhibition at 20 µM [2] |
| --- | --- | --- |
| Nc1ccn([C@@H]2O[C@H](COP(=O)(O)OP(=O)(O)O)[C@@H](O)[C@H]2O)c(=O)n1 [CDP] | When ATP/CDP was used as the effector-substrate pair, [^3H]CDP concentrations were varied | – |
| Nc1ncnc2c1ncn2[C@H]1C[C@H](O)[C@@H](COP(=O)(O)OP(=O)(O)OP(=O)(O)O)O1 [dATP] | – | ~50% |
